Where two headings read alike, the source gives them in different places.
Legend:
WDR5 protein = WDR5 protein (Homo sapiens (Human), UniProt P61964); assay: Surface Plasmon Resonance (SPR) assay; assay type: binding; settings: SPR; for residence time: τ=1/koff, read-out: Residence Time (t, min)
MLL1-WRAD2 complex = MLL1-WRAD2 complex (Homo sapiens (Human), UniProt P61964); assay: MLL1-WRAD2 enzyme assay (in vitro methyl transferase assay); assay type: biochemical; settings: MLL1-WRAD2 assay; read-out: In vitro MLL1 activity (IC50)
Experimental: Reaction was initiated with 1 μM 3H-SAM and incubated for 1 hour at 30° C. Reaction mixture was transferred to P81 filter-paper and washed with PBS before detection.

[1] = Table 1, read-out: WDR5 binding affinity (KD)
[2] = Table 2, read-out: WDR5 binding affinity SPR (KD)

Row | SMILES | Kd (WDR5 protein; [1]) [nM] | Kd (WDR5 protein; [2]) [nM] | residence time (WDR5 protein) [min] | IC50 (MLL1-WRAD2 complex) [nM]
1 | CNC(=O)c1ccc(F)c(-c2ccc(N3C[C@@H](C)N(C)[C@@H](C)C3)c(NC(=O)c3c[nH]c(=O)cc3C(F)(F)F)c2)c1 [Example 90, N-(2′-fluoro-5′-(methylcarbamoyl)-4-((3S,5R)-3,4,5-trimethylpiperazin-1-yl)-[1,1′-biphenyl]-3-yl)-6-oxo-4-(trifluoromethyl)-1,6-dihydropyridine-3-carboxamide] | 6.5 | 6.4 | 3 | 1090
2 | CN(C)Cc1ccc(F)c(-c2ccc(N3CCN(C)CC3)c(NC(=O)c3c[nH]c(=O)cc3C(F)(F)F)c2)c1 [Example 40, N-(5′-((dimethylamino)methyl)-2′-fluoro-4-(4-methylpiperazin-1-yl)-[1,1′-biphenyl]-3-yl)-6-oxo-4-(trifluoromethyl)-1,6-dihydropyridine-3-carboxamide] | 9 | 9 | 2.52 | 6290
3 | Cc1cc(=O)[nH]cc1C(=O)Nc1cc(-c2cc(CN3CCOCC3)ccc2F)ccc1N1CCN(C)CC1 [Example 29, N-(2′-fluoro-4-(4-methylpiperazin-1-yl)-5′-(morpholinomethyl)-[1,1′-biphenyl]-3-yl)-4-methyl-6-oxo-1,6-dihydropyridine-3-carboxamide] | 262 | 262 | 0.42 | 26700
4 | CN1CCN(c2ccc(-c3cc(CN4CCOCC4)ccc3F)c(F)c2NC(=O)c2c[nH]c(=O)cc2C(F)(F)F)CC1 [Example 99, N-(2,2′-difluoro-4-(4-methylpiperazin-1-yl)-5′-(morpholinomethyl)-[1,1′-biphenyl]-3-yl)-6-oxo-4-(trifluoromethyl)-1,6-dihydropyridine-3-carboxamide] | 14 | 14 | 2.2 | 3980
5 | Cc1cc(C(=O)Nc2cc(-c3cc(CN4CCOCC4)ccc3F)ccc2N2CCN(C)CC2)cc(C)c1F [Example 11, 4-fluoro-N-(2′-fluoro-4-(4-methylpiperazin-1-yl)-5′-(morpholinomethyl)-[1,1′-biphenyl]-3-yl)-3,5-dimethylbenzamide] | 6 | 6 | 1.04 | 4430
6 | C[C@@H]1CN(c2ccc(-c3cc(C(=O)N(C)C4CCCCC4)ccc3F)cc2NC(=O)c2c[nH]c(=O)cc2C(F)(F)F)C[C@H](C)N1C [Example 111, N-(5′-(cyclohexyl(methyl)carbamoyl)-2′-fluoro-4-((3S,5R)-3,4,5-trimethylpiperazin-1-yl)-[1,1′-biphenyl]-3-yl)-6-oxo-4-(trifluoromethyl)-1,6-dihydropyridine-3-carboxamide] | 2.4 | 24 | 34 | 203
7 | CN1CCN(c2ccc(-c3ccc(OC4CCOCC4)nc3F)cc2NC(=O)c2c[nH]c(=O)cc2C(F)(F)F)CC1 [Example 8, N-(5-(2-fluoro-6-((tetrahydro-2H-pyran-4-yl)oxy)pyridin-3-yl)-2-(4-methylpiperazin-1-yl)phenyl)-6-oxo-4-(trifluoromethyl)-1,6-dihydropyridine-3-carboxamide] | 5 | 5 | 5.85 | 1480
8 | CC1CN(c2ccc(-c3cc(C(=O)NC4CCCCC4)ccc3F)cc2NC(=O)c2c[nH]c(=O)cc2C(F)(F)F)CC(C)N1C (stereo not shown) [Example 124, N-(5′-(cyclohexylcarbamoyl)-2′-fluoro-4-(3,4,5-trimethylpiperazin-1-yl)-[1,1′-biphenyl]-3-yl)-6-oxo-4-(trifluoromethyl)-1,6-dihydropyridine-3-carboxamide] | 1.7 | 1.7 | 20.6 | 293
9 | C[C@H]1CN(c2ccc(-c3ncccc3F)cc2NC(=O)c2c[nH]c(=O)cc2C(F)(F)F)CCN1C [Example 96, (S)—N-(2-(3,4-dimethylpiperazin-1-yl)-5-(3-fluoropyridin-2-yl)phenyl)-6-oxo-4-(trifluoromethyl)-1,6-dihydropyridine-3-carboxamide] | 2.6 | 3 | – | 2530
10 | CCN1CCN(c2ccc(-c3cc(CN4CCOCC4)ccc3F)cc2NC(=O)c2c[nH]c(=O)cc2C(F)(F)F)CC1 [Example 62, N-(4-(4-ethylpiperazin-1-yl)-2′-fluoro-5′-(morpholinomethyl)-[1,1′-biphenyl]-3-yl)-6-oxo-4-(trifluoromethyl)-1,6-dihydropyridine-3-carboxamide] | > 200 | > 200 | – | 13500
11 | CC(C)COc1ccc(F)c(-c2ccc(N3CCN(C)CC3)c(NC(=O)c3c[nH]c(=O)cc3C(F)(F)F)c2)c1 [Example 6, N-(2′-fluoro-5′-isobutoxy-4-(4-methylpiperazin-1-yl)-[1,1′-biphenyl]-3-yl)-6-oxo-4-(trifluoromethyl)-1,6-dihydropyridine-3-carboxamide] | 76 | 76 | 0.19 | 2510
12 | CN1CCN(c2ccc(-c3cc(CN4CCOCC4)ccc3F)cc2NC(=O)c2ccc(O)cc2C(F)(F)F)CC1 [Example 44, N-(2′-fluoro-4-(4-methylpiperazin-1-yl)-5′-(morpholinomethyl)-[1,1′-biphenyl]-3-yl)-4-hydroxy-2-(trifluoromethyl)benzamide] | 69 | 69 | 0.23 | > 30000
13 | C[C@@H]1CN(c2ccc(-c3cc(CN4CCOCC4)cnc3F)cc2NC(=O)c2c[nH]c(=O)cc2C(F)(F)F)C[C@H](C)N1C [Example 60, N-(5-(2-fluoro-5-(morpholinomethyl)pyridin-3-yl)-2-((3S,5R)-3,4,5-trimethylpiperazin-1-yl)phenyl)-6-oxo-4-(trifluoromethyl)-1,6-dihydropyridine-3-carboxamide] | 7 | 7 | 9.5 | 1410
14 | CN1CCN(c2ccc(-c3cc(C(=O)N(C)C4CCCCC4)ccc3F)cc2NC(=O)c2c[nH]c(=O)cc2C(F)(F)F)CC1 [Example 110, N-(5′-(cyclohexyl(methyl)carbamoyl)-2′-fluoro-4-(4-methylpiperazin-1-yl)-[1,1′-biphenyl]-3-yl)-6-oxo-4-(trifluoromethyl)-1,6-dihydropyridine-3-carboxamide] | 4.2 | 4 | 7.2 | 607
15 | Cc1cc(C(=O)Nc2cc(-c3cc(CN4CCOCC4)ccc3F)ccc2N2CCN(C)CC2)cc(C(F)(F)F)c1F [Example 41, 4-fluoro-N-(2′-fluoro-4-(4-methylpiperazin-1-yl)-5′-(morpholinomethyl)-[1,1′-biphenyl]-3-yl)-3-methyl-5-(trifluoromethyl)benzamide] | 55 | 55 | 0.77 | > 30000
16 | C[C@@H]1CN(c2ccc(-c3cc(C(=O)NC4CC4)ccc3F)cc2NC(=O)c2c[nH]c(=O)cc2C(F)(F)F)C[C@H](C)N1C [Example 93, N-(5′-(cyclopropylcarbamoyl)-2′-fluoro-4-((3S,5R)-3,4,5-trimethylpiperazin-1-yl)-[1,1′-biphenyl]-3-yl)-6-oxo-4-(trifluoromethyl)-1,6-dihydropyridine-3-carboxamide] | 3.1 | 3 | 9.6 | 197
17 | Cc1cc(C(=O)Nc2cc(-c3cc(CN4CCOCC4)ccc3F)ccc2N2CCN(C)CC2)ccc1F [Example 36, 4-fluoro-N-(2′-fluoro-4-(4-methylpiperazin-1-yl)-5′-(morpholinomethyl)-[1,1′-biphenyl]-3-yl)-3-methylbenzamide] | 4 | 4 | 0.12 | > 30000
18 | CN1CCN(c2ncc(-c3cc(CN4CCOCC4)ccc3F)cc2NC(=O)c2c[nH]c(=O)cc2C(F)(F)F)CC1 [Example 84, N-(5-(2-fluoro-5-(morpholinomethyl)phenyl)-2-(4-methylpiperazin-1-yl)pyridin-3-yl)-6-oxo-4-(trifluoromethyl)-1,6-dihydropyridine-3-carboxamide] | 22 | 22 | – | > 30000
19 | C[C@@H]1CN(c2ccc(-c3c(F)ccc(CNC4CCCCC4)c3F)cc2NC(=O)c2c[nH]c(=O)cc2C(F)(F)F)C[C@H](C)N1C [Example 114, N-(3′-((cyclohexylamino)methyl)-2′,6′-difluoro-4-((3S,5R)-3,4,5-trimethylpiperazin-1-yl)-[1,1′-biphenyl]-3-yl)-6-oxo-4-(trifluoromethyl)-1,6-dihydropyridine-3-carboxamide] | 13 | 13 | 4.3 | 11100
20 | CN1CCN(c2ccc(-c3cc(CN4CCOCC4)cnc3F)cc2NC(=O)c2c[nH]c(=O)cc2C(F)(F)F)CC1 [Example 61, N-(5-(2-fluoro-5-(morpholinomethyl)pyridin-3-yl)-2-(4-methylpiperazin-1-yl)phenyl)-6-oxo-4-(trifluoromethyl)-1,6-dihydropyridine-3-carboxamide] | 7 | 7 | 2.29 | 4490
21 | CN1CCN(c2ccc(-c3ccc(CNC4CCCC4)cc3F)cc2NC(=O)c2c[nH]c(=O)cc2C(F)(F)F)CC1 [Example 33, N-(4′-((cyclopentylamino)methyl)-2′-fluoro-4-(4-methylpiperazin-1-yl)-[1,1′-biphenyl]-3-yl)-6-oxo-4-(trifluoromethyl)-1,6-dihydropyridine-3-carboxamide] | 23 | 23 | 1.37 | 8450
22 | CN1CCN(c2ccc(-c3cc(CN(C)C4COC4)ccc3F)cc2NC(=O)c2c[nH]c(=O)cc2C(F)(F)F)CC1 [Example 43, N-(2′-fluoro-5′-((methyl(oxetan-3-yl)amino)methyl)-4-(4-methylpiperazin-1-yl)-[1,1′-biphenyl]-3-yl)-6-oxo-4-(trifluoromethyl)-1,6-dihydropyridine-3-carboxamide] | 7 | 7 | 3.64 | 3250

Reference: US11174250B2, “Substituted carboxamides as inhibitors of WDR5 protein-protein binding” (PROPELLON THERAPEUTICS INC., priority 2016, dated 2021)
